From patent US9400283B2, “In vitro method using human skin for evaluating the influence of ABC transporters” (GALDERMA RESEARCH & DEVELOPMENT, priority 2011, dated 2016)
One block for each compound: values may come before it.

Legend:
human skin samples [1] = assay: Cutaneous distribution of LTC4 by autoradiography of skin sections; format: in vitro ADME
Description: The distribution of Vinblastine in the skin was analyzed by autoradiography. Skin samples were placed in a tissue holder and freeze-mounted in cryomount embedding medium. The frozen blocks were sectioned into slices 8-10 μm thick, perpendicular to the epidermal surface in a cryomicrotome (Thermo Electron). The sections were collected on glass slides and dried. Cryosections were placed on a Fuji imaging plate type Bas-III (20×40 cm) in a Fujix Bas cassette 2040 during 24 hours to 5 days. The exposed plate was scanned with a Bio-Imaging analyzer (Fujix BAS 2000). The scanned images were analyzed using TINA software.
The distribution of the LTC4 in the skin was analyzed by autoradiography. The experimental conditions are identical to those described previously for vinblastine.

human skin samples [2] = assay: In vitro cutaneous absorption of LTC4 (receptor fluid, liquid scintillation counting); format: in vitro ADME; details: 68.5 nM LTC4 10 μL/cm2, 6 hours
Description: Tritium labeled LTC4 was used. The concentration of the LTC4 solution used was 68.5 nM (0.01 mCi/mL).
At the end of the period of treatment with the inhibitor, the skin samples, both the control samples and those treated with the inhibitor, were treated with the LTC4 solution. […] The duration of the treatment with LTC4 was 6 hours.
The in vitro LTC4 skin absorption experiments were performed with fresh skin samples originating from three different donors. The experiments were performed in 6-well Transwell plates, with a 1 cm^2 area of treated skin and receptor fluid volumes of 1.5 mL. The treatment volume for the skin surface was 10 μL, corresponding to 0.69 […] and 222 000 dpm. Three different experiments were performed with skin samples originating from three different donors. In each experiment, each condition was performed in triplicate (N=9 in total).

human skin samples [3] = assay: Skin distribution of Rhodamine 123 by epifluorescence microscopy; format: in vitro ADME; details: skin samples treated with Verapamil, data not shown
[4] = system: ex vivo human skin samples; assay: In vitro skin absorption of vinblastine (receptor fluid, liquid scintillation counting); details: for vinblastine skin absorption (amount in receptor fluid): 16 hours

cutaneous absorption of LTC4, share of the applied dose (human skin samples [2]): about 1.7 % of the applied dose
SMILES: CCCCC/C=C\C\C=C/C=C/C=C/[C@@H](SC[C@H](NC(=O)CC[C@H](N)C(=O)O)C(=O)NCC(=O)O)[C@@H](O)CCCC(=O)O [LTC4, leukotriene-C4]
cutaneous distribution of LTC4 (autoradiography signal) (human skin samples [1]; skin sections without treatment with the inhibitor): a radioactive signal related to LTC4 is observed in the uppermost part of the skin section corresponding to the epidermis

SMILES: CN(C)C(=O)CCSC(SCCC(=O)O)c1cccc(/C=C/c2ccc3ccc(Cl)cc3n2)c1 (stereo not shown) [MK571]
effect of MK571 on cutaneous distribution of LTC4 (autoradiography signal) (human skin samples [1]; skin treated with the inhibitor MK571): appreciable increase in the intensity of the signal related to LTC4

SMILES: COc1ccc(CCN(C)CCCC(C#N)(c2ccc(OC)c(OC)c2)C(C)C)cc1OC (stereo not shown) [verapamil, Verapamil]
effect of Verapamil on Rhodamine 123 fluorescence intensity in skin sections (human skin samples [3]): No difference in fluorescence intensity

vinblastine skin absorption (amount in receptor fluid) ([4]; dermarolled skin (32 roller passages)): 0.6 nmol
increase of vinblastine skin absorption by skin perforation by dermaroller ([4]; dermarolled versus intact skin): about 200 times
vinblastine skin absorption, share of the applied dose ([4]; intact human skin, 2.5 mM [3H]-vinblastine 10 μL/cm2, 16 hours, receptor fluid): 0.001 % of the applied dose
vinblastine skin absorption (amount in receptor fluid) ([4]; intact human skin): 0.003 nmol
increase of vinblastine skin absorption by tape stripping ([4]; stripped versus intact skin): about 20 times
vinblastine skin absorption (amount in receptor fluid) ([4]; tape stripped skin (30 stripes)): 0.07 nmol
SMILES: CC[C@]1(O)C[C@@H]2CN(CCc3c([nH]c4ccccc34)[C@@](C(=O)OC)(c3cc4c(cc3OC)N(C)[C@H]3[C@@](O)(C(=O)OC)[C@H](OC(C)=O)[C@]5(CC)C=CCN6CC[C@]43[C@@H]65)C2)C1 [vinblastine, Vinblastine]
